Assay results from ChEMBL document CHEMBL2321869, “Ion channels as therapeutic targets: a drug discovery perspective” (J Med Chem, 2013).
pEC50, pIC50, pKi: −log10 of the molar value.

Legend:
[1] = Agonist activity at AMPA receptor in rat DRG neurons by patch clamp technique; conditions: DRG neuron
[2] = Agonist activity at AMPA receptor in rat hippocampal neurons by patch clamp technique; format: tissue-based; conditions: Hippocampus
[3] = organism: Rattus norvegicus; assay: Selectivity ratio of EC50 for AMPA receptor in rat hippocampal neurons to EC50 for AMPA receptor in rat DRG neurons; format: tissue-based; conditions: Hippocampus
[4] = molecular target: T1, Potassium channel subfamily K member 2 (Homo sapiens, UniProt O95069); assay: Inhibition of TREK-1 (unknown origin)
[5] = molecular target: Inward rectifier potassium channel 4 (Homo sapiens, UniProt P48050); assay: Inhibition of Kir2.3 (unknown origin)
[6] = molecular target: Potassium voltage-gated channel subfamily KQT member 3 (Homo sapiens, UniProt O43525); assay: Positive modulatory activity at voltage-gated K channel 7.3 (unknown origin)
[7] = molecular target: Potassium voltage-gated channel subfamily KQT member 2 (Homo sapiens, UniProt O43526); assay: Positive modulatory activity at voltage-gated K channel 7.2 (unknown origin)
[8] = molecular target: Potassium voltage-gated channel subfamily KQT member 5 (Homo sapiens, UniProt Q9NR82); assay: Positive modulatory activity at voltage-gated K channel 7.5 (unknown origin)
[9] = molecular target: Calcium-activated potassium channel subunit alpha-1 (Homo sapiens, UniProt Q12791); assay: Positive modulation of Kca 1.1 (unknown origin)
[10] = molecular target: Potassium voltage-gated channel subfamily KQT member 4 (Homo sapiens, UniProt P56696); assay: Positive modulatory activity at voltage-gated K channel 7.4 (unknown origin)
[11] = molecular target: P2X2/P2X3 heterotrimeric receptor (Homo sapiens, UniProt P56373+Q9UBL9); assay: Antagonist activity at human P2X2/3 receptor; format: protein-complex assay
[12] = molecular target: T2, Gamma-aminobutyric acid receptor subunit alpha-5 (Homo sapiens, UniProt P31644); assay: Positive allosteric modulation of GABAA alpha5 (unknown origin)
T2 sequence (P31644 whole entry): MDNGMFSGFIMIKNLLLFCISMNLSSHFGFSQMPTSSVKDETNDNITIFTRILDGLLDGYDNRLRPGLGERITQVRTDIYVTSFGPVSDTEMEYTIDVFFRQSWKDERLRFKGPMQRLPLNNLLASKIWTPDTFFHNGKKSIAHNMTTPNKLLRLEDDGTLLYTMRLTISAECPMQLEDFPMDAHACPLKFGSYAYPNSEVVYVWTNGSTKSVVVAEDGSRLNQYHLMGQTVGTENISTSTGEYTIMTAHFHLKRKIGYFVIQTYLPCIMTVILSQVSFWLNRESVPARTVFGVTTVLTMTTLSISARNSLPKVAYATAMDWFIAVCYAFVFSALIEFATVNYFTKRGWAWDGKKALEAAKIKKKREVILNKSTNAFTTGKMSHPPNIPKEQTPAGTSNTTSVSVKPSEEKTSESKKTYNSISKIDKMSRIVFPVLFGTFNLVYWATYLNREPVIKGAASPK

[13] = molecular target: T3, Gamma-aminobutyric acid receptor subunit alpha-3 (Homo sapiens, UniProt P34903); assay: Positive allosteric modulation of GABAA alpha3 (unknown origin)
T3 sequence (P34903 whole entry): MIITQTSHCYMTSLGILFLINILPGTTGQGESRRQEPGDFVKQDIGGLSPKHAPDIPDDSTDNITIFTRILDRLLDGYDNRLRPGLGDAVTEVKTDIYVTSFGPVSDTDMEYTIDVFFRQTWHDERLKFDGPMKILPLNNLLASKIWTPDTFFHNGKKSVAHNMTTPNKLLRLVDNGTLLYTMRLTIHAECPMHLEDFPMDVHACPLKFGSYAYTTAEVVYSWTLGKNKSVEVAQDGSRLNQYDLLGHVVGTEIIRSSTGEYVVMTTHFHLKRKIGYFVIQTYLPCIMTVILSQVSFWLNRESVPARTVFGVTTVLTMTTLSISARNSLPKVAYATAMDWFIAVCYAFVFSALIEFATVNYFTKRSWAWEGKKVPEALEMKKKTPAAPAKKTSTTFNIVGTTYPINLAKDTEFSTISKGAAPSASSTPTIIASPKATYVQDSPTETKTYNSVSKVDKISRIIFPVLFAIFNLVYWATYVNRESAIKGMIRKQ

[14] = molecular target: Gamma-aminobutyric acid receptor subunit alpha-1 (Homo sapiens) (UniProt P14867); assay: Positive allosteric modulation of GABAA alpha1 (unknown origin) relative to control
[15] = molecular target: T4, Gamma-aminobutyric acid receptor subunit alpha-1 (Homo sapiens, UniProt P14867); assay: Positive allosteric modulation of GABAA alpha1 (unknown origin)
T4 sequence (P14867 whole entry): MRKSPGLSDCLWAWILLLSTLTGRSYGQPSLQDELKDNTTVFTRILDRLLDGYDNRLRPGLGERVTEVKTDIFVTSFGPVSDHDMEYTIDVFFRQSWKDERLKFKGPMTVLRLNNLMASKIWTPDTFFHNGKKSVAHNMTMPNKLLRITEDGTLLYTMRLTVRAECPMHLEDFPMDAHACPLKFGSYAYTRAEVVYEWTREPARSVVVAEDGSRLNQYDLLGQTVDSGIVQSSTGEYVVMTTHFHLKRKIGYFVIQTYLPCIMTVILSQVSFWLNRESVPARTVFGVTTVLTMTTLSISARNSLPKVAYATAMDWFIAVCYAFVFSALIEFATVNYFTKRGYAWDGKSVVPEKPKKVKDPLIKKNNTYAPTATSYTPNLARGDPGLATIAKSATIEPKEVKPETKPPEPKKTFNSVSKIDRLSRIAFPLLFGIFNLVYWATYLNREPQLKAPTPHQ

[16] = molecular target: T5, Gamma-aminobutyric acid receptor subunit alpha-2 (Homo sapiens) (UniProt P47869); assay: Positive allosteric modulation of GABAA alpha2 (unknown origin) relative to control
T5 sequence (whole entry): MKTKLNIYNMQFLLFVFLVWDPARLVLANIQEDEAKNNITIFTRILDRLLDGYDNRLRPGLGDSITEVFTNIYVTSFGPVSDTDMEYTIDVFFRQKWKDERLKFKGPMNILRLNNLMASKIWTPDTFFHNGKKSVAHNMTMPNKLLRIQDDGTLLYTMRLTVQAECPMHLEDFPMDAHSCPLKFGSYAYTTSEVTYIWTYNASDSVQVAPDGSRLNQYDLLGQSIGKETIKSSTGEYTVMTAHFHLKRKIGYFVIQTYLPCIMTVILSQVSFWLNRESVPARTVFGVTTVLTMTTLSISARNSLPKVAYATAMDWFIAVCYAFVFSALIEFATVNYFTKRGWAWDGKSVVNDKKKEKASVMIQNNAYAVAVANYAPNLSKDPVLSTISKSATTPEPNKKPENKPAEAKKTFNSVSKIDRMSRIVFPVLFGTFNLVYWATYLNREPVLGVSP

[17] = molecular target: Gamma-aminobutyric acid receptor subunit alpha-3 (Homo sapiens) (UniProt P34903); assay: Positive allosteric modulation of GABAA alpha3 (unknown origin) relative to control
[18] = molecular target: T6, Gamma-aminobutyric acid receptor subunit alpha-2 (Homo sapiens, UniProt P47869); assay: Positive allosteric modulation of GABAA alpha2 (unknown origin)
T6 sequence (P47869 whole entry): T5 sequence (whole entry)

[19] = molecular target: T1, Potassium channel subfamily K member 2; assay: Inhibition of human TREK-1 expressed in HEK293 cells by patch-clamp technique; format: cell-based
[20] = molecular target: Inward rectifier potassium channel 2 (Mus musculus, UniProt P35561); assay: Inhibition of mouse Kir2.1 expressed in HEK293 cells by patch clamp technique; format: cell-based
[21] = organism: Homo sapiens; assay: Selectivity ratio of IC50 for human voltage-gated Na channel 1.5 to IC50 for human voltage-gated Na channel 1.8
[22] = organism: Homo sapiens; assay: Selectivity ratio of IC50 for human voltage-gated Na channel 1.1 to IC50 for human voltage-gated Na channel 1.8
[23] = organism: Homo sapiens; assay: Selectivity ratio of IC50 for human voltage-gated Na channel 1.7 to IC50 for human voltage-gated Na channel 1.8
[24] = molecular target: Potassium channel subfamily K member 3 (Homo sapiens, UniProt O14649); assay: Inhibition of TASK-1 (unknown origin)
[25] = molecular target: Potassium voltage-gated channel subfamily B member 2 (Homo sapiens, UniProt Q92953); assay: Inhibition of voltage-gated K channel 2.2 (unknown origin) by automated patch clamp assay
[26] = organism: Homo sapiens; assay: Selectivity ratio of IC50 for voltage-gated K channel (unknown origin) to voltage-gated K channel 2.2 (unknown origin)
[27] = organism: Homo sapiens; assay: Selectivity ratio of IC50 for voltage-gated Na channel (unknown origin) to IC50 for voltage-gated K channel 2.2 (unknown origin)
[28] = organism: Homo sapiens; assay: Selectivity ratio of IC50 for voltage-gated Na channel (unknown origin) to IC50 for human voltage-gated K channel 2.1
[29] = organism: Homo sapiens; assay: Selectivity ratio of IC50 for voltage-gated K channel (unknown origin) to human voltage-gated K channel 2.1
[30] = Inhibition of AMPA receptor (unknown origin); set-up: species or system Homo sapiens
[31] = molecular target: Glutamate receptor ionotropic, kainate 1 (Homo sapiens, UniProt P39086); assay: Inhibition of GluK1 receptor (unknown origin)
Chain of Glutamate receptor ionotropic, kainate 1 (P39086 whole entry): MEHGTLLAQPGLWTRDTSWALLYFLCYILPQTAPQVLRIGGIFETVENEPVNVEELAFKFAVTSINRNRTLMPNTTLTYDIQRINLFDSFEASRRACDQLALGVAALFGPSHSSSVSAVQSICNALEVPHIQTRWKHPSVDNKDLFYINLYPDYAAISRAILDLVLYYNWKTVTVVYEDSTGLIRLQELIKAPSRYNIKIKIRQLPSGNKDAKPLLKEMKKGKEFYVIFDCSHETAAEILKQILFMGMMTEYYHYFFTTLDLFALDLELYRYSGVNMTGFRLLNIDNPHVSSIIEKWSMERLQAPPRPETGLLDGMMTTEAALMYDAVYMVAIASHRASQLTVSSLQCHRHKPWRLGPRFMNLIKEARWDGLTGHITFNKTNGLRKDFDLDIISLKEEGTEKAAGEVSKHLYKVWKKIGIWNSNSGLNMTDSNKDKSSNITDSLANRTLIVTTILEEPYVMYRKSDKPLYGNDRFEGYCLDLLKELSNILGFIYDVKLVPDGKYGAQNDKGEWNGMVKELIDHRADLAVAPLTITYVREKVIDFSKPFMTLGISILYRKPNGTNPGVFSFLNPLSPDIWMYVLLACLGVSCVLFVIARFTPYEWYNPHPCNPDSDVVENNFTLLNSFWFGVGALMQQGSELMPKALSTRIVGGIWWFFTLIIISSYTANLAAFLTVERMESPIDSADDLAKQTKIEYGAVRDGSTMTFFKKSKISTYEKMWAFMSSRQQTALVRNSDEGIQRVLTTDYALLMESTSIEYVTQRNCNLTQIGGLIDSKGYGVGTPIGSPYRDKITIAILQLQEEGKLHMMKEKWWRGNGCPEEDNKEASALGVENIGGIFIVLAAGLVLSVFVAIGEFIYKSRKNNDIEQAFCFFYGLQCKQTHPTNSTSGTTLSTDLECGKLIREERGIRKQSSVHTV

Chain of P2X2/P2X3 heterotrimeric receptor (Q9UBL9 whole entry): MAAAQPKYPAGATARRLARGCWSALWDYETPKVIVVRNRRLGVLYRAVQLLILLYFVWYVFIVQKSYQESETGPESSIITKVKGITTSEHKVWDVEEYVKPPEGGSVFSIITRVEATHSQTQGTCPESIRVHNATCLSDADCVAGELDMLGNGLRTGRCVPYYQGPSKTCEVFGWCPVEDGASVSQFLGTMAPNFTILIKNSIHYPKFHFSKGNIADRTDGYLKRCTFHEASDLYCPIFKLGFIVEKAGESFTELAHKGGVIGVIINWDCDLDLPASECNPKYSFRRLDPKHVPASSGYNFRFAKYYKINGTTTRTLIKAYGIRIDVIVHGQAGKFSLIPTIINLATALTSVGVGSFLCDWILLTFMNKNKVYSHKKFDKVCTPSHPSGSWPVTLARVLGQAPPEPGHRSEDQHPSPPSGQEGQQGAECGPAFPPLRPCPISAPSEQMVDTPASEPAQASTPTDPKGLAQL
Chain of P2X2/P2X3 heterotrimeric receptor (P56373 whole entry): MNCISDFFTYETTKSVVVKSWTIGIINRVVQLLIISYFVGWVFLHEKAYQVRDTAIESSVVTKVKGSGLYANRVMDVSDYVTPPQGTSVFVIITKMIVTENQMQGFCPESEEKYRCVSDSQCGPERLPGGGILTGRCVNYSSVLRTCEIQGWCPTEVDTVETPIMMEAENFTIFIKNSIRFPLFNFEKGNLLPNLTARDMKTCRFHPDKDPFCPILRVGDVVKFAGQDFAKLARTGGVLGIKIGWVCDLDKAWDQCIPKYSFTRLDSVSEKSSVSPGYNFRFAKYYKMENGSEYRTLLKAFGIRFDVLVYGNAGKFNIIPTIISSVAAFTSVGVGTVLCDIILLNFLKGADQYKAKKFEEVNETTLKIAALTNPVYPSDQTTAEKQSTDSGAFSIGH
T1 sequence (O95069 whole entry): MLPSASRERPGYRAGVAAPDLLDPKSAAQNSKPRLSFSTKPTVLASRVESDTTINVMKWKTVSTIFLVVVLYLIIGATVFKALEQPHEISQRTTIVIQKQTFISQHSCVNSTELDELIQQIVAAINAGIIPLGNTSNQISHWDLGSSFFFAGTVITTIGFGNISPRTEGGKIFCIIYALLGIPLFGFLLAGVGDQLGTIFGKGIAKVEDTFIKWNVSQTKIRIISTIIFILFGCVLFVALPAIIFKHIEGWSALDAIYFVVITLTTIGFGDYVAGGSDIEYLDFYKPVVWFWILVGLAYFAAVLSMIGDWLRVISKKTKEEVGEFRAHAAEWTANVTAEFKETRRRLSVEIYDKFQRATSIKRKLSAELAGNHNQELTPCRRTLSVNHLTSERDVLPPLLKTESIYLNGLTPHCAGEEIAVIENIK
Chain of Calcium-activated potassium channel subunit alpha-1 (Q12791 whole entry): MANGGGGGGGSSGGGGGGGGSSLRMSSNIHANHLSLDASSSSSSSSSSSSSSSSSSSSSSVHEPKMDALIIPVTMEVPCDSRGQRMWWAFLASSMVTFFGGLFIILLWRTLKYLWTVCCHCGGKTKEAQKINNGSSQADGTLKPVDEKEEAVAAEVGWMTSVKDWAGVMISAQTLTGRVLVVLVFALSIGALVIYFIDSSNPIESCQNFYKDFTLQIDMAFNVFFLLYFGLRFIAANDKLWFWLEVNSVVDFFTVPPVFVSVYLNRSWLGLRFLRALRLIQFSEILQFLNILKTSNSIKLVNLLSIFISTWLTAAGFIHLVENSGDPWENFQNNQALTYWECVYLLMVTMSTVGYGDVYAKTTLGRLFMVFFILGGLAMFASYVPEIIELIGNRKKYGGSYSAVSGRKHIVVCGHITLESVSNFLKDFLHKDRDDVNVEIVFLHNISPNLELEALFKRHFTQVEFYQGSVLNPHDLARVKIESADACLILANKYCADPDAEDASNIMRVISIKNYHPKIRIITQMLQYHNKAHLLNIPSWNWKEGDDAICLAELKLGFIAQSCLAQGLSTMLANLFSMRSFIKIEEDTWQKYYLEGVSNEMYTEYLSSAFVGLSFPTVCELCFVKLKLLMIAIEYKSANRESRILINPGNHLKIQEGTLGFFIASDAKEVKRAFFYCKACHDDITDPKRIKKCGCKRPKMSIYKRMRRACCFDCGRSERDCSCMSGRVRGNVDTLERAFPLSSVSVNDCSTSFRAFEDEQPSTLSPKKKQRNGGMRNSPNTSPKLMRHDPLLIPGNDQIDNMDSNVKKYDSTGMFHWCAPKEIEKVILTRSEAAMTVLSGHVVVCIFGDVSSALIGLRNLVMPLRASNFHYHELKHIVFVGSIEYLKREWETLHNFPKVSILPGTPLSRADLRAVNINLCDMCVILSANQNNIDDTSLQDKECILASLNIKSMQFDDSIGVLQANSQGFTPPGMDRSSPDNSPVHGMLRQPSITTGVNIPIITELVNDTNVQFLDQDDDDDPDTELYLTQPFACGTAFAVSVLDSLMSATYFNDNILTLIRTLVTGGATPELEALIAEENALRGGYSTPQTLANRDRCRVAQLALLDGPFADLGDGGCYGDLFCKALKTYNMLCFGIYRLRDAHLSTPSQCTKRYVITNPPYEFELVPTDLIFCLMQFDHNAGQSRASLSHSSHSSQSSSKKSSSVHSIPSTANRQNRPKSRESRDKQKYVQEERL
Chain of Potassium voltage-gated channel subfamily B member 2 (Q92953 whole entry): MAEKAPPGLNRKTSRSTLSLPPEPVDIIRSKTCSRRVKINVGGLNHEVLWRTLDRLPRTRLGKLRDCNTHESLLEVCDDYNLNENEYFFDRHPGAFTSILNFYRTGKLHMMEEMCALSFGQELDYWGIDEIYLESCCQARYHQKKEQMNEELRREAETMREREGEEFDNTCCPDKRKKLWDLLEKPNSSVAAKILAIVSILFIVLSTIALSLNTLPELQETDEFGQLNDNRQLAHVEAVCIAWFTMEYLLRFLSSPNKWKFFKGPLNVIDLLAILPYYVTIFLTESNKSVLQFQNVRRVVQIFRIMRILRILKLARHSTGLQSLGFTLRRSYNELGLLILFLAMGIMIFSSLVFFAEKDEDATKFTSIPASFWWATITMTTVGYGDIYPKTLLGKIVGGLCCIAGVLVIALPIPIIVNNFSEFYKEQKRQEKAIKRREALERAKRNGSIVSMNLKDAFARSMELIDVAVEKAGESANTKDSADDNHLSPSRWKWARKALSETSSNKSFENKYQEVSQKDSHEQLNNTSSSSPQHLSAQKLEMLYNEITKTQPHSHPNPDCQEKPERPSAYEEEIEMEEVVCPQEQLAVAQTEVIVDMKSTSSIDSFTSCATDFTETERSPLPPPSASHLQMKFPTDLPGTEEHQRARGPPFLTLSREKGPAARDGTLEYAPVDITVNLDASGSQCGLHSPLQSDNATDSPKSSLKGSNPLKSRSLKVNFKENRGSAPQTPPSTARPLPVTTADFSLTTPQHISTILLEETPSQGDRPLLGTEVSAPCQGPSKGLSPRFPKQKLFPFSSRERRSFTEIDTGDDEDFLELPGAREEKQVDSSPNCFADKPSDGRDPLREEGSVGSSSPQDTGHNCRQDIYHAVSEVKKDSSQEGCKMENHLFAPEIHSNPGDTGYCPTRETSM
Chain of Potassium voltage-gated channel subfamily KQT member 4 (P56696 whole entry): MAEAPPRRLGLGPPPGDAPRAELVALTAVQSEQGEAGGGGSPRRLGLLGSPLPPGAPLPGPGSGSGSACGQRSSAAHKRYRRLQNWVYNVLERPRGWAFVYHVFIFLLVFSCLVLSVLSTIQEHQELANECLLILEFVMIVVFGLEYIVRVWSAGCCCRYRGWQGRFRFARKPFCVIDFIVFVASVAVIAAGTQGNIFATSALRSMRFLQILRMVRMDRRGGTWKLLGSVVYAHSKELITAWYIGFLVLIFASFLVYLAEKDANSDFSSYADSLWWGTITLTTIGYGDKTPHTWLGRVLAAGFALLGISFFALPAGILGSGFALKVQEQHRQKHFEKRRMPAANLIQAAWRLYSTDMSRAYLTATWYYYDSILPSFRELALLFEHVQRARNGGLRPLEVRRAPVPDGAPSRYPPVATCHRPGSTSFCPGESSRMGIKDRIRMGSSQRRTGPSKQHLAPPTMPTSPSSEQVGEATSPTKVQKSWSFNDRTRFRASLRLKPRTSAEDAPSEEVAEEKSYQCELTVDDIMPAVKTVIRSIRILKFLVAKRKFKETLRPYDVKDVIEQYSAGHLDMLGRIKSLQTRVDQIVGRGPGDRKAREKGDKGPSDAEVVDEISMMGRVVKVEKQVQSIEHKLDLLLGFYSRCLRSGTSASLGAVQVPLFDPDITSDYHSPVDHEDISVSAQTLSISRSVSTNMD

## N[C@@H](Cn1cc(Cl)c(=O)[nH]c1=O)C(=O)O
[1]
  pEC50: 5.70
[2]
  pEC50: 5.70

## N[C@@H](Cn1cc(I)c(=O)[nH]c1=O)C(=O)O
[1]
  pEC50: 6.85
[3]
  Ratio EC50: 137

## CCOC(=O)C1=C(COCCN)NC(C)=C(C(=O)OC)C1c1ccccc1Cl (configuration not stated) [AMLODIPINE]
[4]
  pIC50: 6.40

## N=c1n(Cc2ccccc2)c2ccccc2n1CC(O)CN1CCOCC1 (configuration not stated)
[5]
  pIC50: 4.62

## COc1ccc(Cl)cc1[C@]1(F)C(=O)Nc2cc(C(F)(F)F)ccc21 [FLINDOKALNER]
[6]
  pEC50: 5.62
[7]
  pEC50: 5.62
[8]
  pEC50: 5.62
[9]
  pEC50: 6.45
[10]
  pEC50: 5.62

## Cc1ccc(-c2cc(C(=O)N[C@H](C)c3ccc(F)cn3)cc(-c3ncccc3F)c2)nc1
[11]
  pIC50: 5.10

## Cc1cc(-c2nncc3c(C(C)(C)C)c(OCc4ncnn4C)nn23)no1
[12]
  pKi: 8.85
[13]
  pKi: 9.10
[14]
  Activity: 23%
[15]
  pKi: 9.10
[16]
  Activity: 4%
[17]
  Activity: -15%
[18]
  pKi: 9.10

## CCN(CC)CC(=O)Nc1c(C)cccc1C [LIDOCAINE]
[19]
  pIC50: 3.74

## COc1ccc(CNCc2cccc3ccccc23)cc1
[20]
  pIC50: 5.74

## Cc1nocc1C(=O)Nc1ccc(-c2ccccc2OC(F)(F)F)c(N)n1
[21]
  Ratio IC50: > 20
[22]
  Ratio IC50: > 20
[23]
  Ratio IC50: > 20

## Cc1csc(-c2cc(-c3ccncc3)c3n(c2=O)CCCc2ccncc2-3)n1
[13]
  pKi: 9.30
[15]
  pKi: 8.89
[16]
  Activity: 37%
[18]
  pKi: 9.22

## CCCC(=O)C1CCN(c2ncnc3c2CN(C(=O)c2ccc(-c4ccccc4)cc2)CC3)CC1
[24]
  pIC50: 6.52

## CC(C)C(=O)Nc1ccc(N(C)C)c(C(=O)N[C@@H](C)c2ccccc2)c1
[25]
  pIC50: 7.00
[26]
  Ratio IC50: > 10
[27]
  Ratio IC50: > 10
[28]
  Ratio IC50: > 10
[29]
  Ratio IC50: > 10

## O=C(O)[C@@H]1C[C@H]2C[C@@H](CCc3nn[nH]n3)CC[C@H]2CN1 [TEZAMPANEL ANHYDROUS]
[30]
  pIC50: 6.30
[31]
  pIC50: 6.30

## CCc1nnnn1-c1cc(C(=O)NC(C)c2cnccn2)cc(-c2ccc(C)cc2)c1 (configuration not stated)
[11]
  pIC50: 5.10
